We go through 15 molecules from patent US11040028B2, “Penicinotam derivative, preparation method and use thereof” (OCEAN UNIVERSITY OF CHINA, priority 2017, dated 2021).

Common to all, as to type: cell-based
In one assay the test system is BHK-21 cells. As to the kind of experiment: Anti-fibrosis activity test: inhibition of BHK-21 cell proliferation (CCK-8). The conditions noted are these: Mesocricetus auratus, BHK-21, 48 h, CCK-8, 48 hours after administration. The method, boiled down: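 Each concentration was tested in triplicate on adhered BHK-21 cells for 48 h, with pirfenidone as reference. A 2 h CCK-8 incubation preceded absorbance reading at 450 nm, and IC50 was obtained from percent inhibition versus blank.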

Assay [1] concerns human lung fibroblasts HFL1. Kind of assay: Anti-fibrosis activity test: inhibition of proliferation of human lung fibroblasts HFL1 (CCK-8). The conditions noted are these: Homo sapiens, HFL1, 48 h, human lung fibroblasts HFL1, CCK-8, 48 hours. The method, boiled down: (§1)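 48 h compound treatment of fibroblast-type cells seeded at 2×10^4 cells/mL, 37° C, 5% CO2; viability by CCK-8 (2 h, A450). Inhibition rate calculated against blank control, IC50 by curve fitting; pirfenidone served as reference.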

Assay [2] relates to human hepatic stellate cells LX-2. As to the kind of experiment: Anti-fibrosis activity test: inhibition of proliferation of human hepatic stellate cells LX-2 (CCK-8). As to conditions: Homo sapiens, 48 h, human hepatic stellate cells LX-2, CCK-8, 48 hours. The method, boiled down:
as §1

The subject of assay [3] is human fibrosarcoma cells HT-1080. As to the kind of experiment: Anti-fibrosis activity test: inhibition of proliferation of human fibrosarcoma cells HT-1080 (CCK-8). The conditions noted are these: Homo sapiens, HT-1080, 48 h, human fibrosarcoma cells HT-1080, CCK-8, 48 hours. The method, boiled down:
as §1

Assay [4] relates to human dermal fibroblasts CCC-ESF-1. Kind of assay: Anti-fibrosis activity test: inhibition of proliferation of human dermal fibroblasts CCC-ESF-1 (CCK-8). As to conditions: Fibroblast; human dermal fibroblasts CCC-ESF-1, CCK-8, 48 hours. The procedure, abridged:
as §1

In assay [5] the test system is human embryonic lung fibroblast IMR-90. Kind of assay: Anti-fibrosis activity test: inhibition of proliferation of human embryonic lung fibroblast IMR-90 (CCK-8). The conditions noted are these: human embryonic lung fibroblast IMR-90, CCK-8, 48 hours. The method, boiled down: as §1
The test system of assay [6] is cardiac fibroblast RAT-iCell-C002. As to the kind of experiment: Anti-fibrosis activity test: inhibition of proliferation of cardiac fibroblast RAT-iCell-C002 (CCK-8). As to conditions: Cardiac fibroblast, 48 h, cardiac fibroblast RAT-iCell-C002, CCK-8, 48 hours. The procedure, abridged: as §1
A further assay has as its system NF-κB. As to the kind of experiment: Immunological activity test: inhibition of NF-κB activity. As to conditions: initial concentration of 30 μM; a/b isomers given as first/second symbol; read-out: IC50 (μM), inhibitory activity against NF-κB. The procedure, abridged: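 Compounds were first screened for inhibition of NF-κB activity at 30 μM, with parthenolide as the positive control. IC50 values were then determined for the compounds by further analysis of the assay data.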

Assay [7] deals with mouse macrophages (RAW264.7). Kind of assay: Lipopolysaccharide-induced NO secretion in macrophages (Griess). As to conditions: Mus musculus, RAW264.7, 24 h, RAW264.7, LPS 1 μg/ml, a/b isomers given as first/second symbol, read-out: IC50 (μM), inhibition of lipopolysaccharide-induced NO secretion in macrophages. The procedure, abridged:
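RAW264.7 macrophages in DMEM with 10% FBS received test samples at several concentrations and were stimulated with 1 μg/ml LPS for 24 h. NO in the supernatant was measured with the Griess reagent at 548 nm, […].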
A general note: Nitrite, measured by Griess reagent, commonly stands in for NO production.

Regarding `Cc1ccc(COc2c3c(nc4ccccc24)-c2cccn2C3=O)cc1` [Compound 604b, 9-((4-methylbenzyl)oxy)-10H-pyrrolizino[1,2-b]quinolin-10-one], the half-inhibitory concentration (IC50) (in the assay on BHK-21 cells; in [1]; in [2]; in assay [3]; in assay [4]; in assay [5]) was 0.05 to 5 mM in each case. The values for the IC50 (in assay [6]; in the assay on NF-κB; in [7]) were 0.05 to 5 mM, 1 to 10 µM and 1 to 10 µM, respectively.

`CC(C)(C)c1ccc(Cn2c3c(c(=O)c4ccccc42)C(=O)n2cccc2-3)cc1` [Compound 605a, 4-(4-(Tert-butyl)benzyl)-9H-pyrrolizino[1,2-b]quinoline-9,10(4H)-dione]: the IC50 (in the assay with BHK-21 cells; in [1]; in assay [2]; in assay [3]; in assay [4]; in assay [5]) was 0.05 to 5 mM each time. Besides, the values for the IC50 (in assay [6]; in the assay with NF-κB; in assay [7]) were 0.05 to 5 mM, 1 to 10 µM and 1 to 10 µM, respectively.

For the molecule `CC(C)(C)c1ccc(COc2c3c(nc4ccccc24)-c2cccn2C3=O)cc1` [Compound 605b, 9-((4-(tert-butyl)benzyl)oxy)-10H-pyrrolizino[1,2-b]quinolin-10-one], the IC50 (in the assay with BHK-21 cells; in assay [1]; in assay [2]; in [3]; in [4]; in assay [5]) was 0.05 to 5 mM in each case. Besides, the results for the half-maximal inhibitory concentration (IC50) (in assay [6]; in the assay with NF-κB; in [7]) were 0.05 to 5 mM, 1 to 10 µM and 1 to 10 µM, respectively.

As for `O=C1c2c(n(Cc3ccc(Br)cc3F)c3ccccc3c2=O)-c2cccn21` [Compound 606a, 4-(4-Bromo-2-fluorobenzyl)-9H-pyrrolizino[1,2-b]quinoline-9,10(4H)-dione], the IC50 (usually the point on the concentration scale where inhibition reaches its midpoint) with BHK-21 cells was < 0.05 mM; in assay [1], 0.05 to 5 mM; in [2] it was 0.05 to 5 mM; in assay [3], < 0.05 mM; in [4], 0.05 to 5 mM; in assay [5], 0.05 to 5 mM. In addition, the half-maximal inhibitory concentration (IC50) in assay [6] lay within 0.05 to 5 mM; in the assay on NF-κB, 0.1 to 1 µM; in assay [7] it was 1 to 10 µM.

Regarding `O=C1c2c(nc3ccccc3c2OCc2ccc(Br)cc2F)-c2cccn21` [Compound 606b, 9-((4-bromo-2-fluorobenzyl)oxy)-10H-pyrrolizino[1,2-b]quinolin-10-one], the IC50 (in the assay on BHK-21 cells; in [1]; in assay [2]; in assay [3]; in assay [4]; in [5]) was 0.05 to 5 mM in each case. In addition, the IC50 in assay [6] was 0.05 to 5 mM; with NF-κB it was 1 to 10 µM; in assay [7], 1 to 10 µM.

`O=C1c2c(n(Cc3cc(C(F)(F)F)cc(C(F)(F)F)c3)c3ccccc3c2=O)-c2cccn21` [Compound 607a, 4-(3,5-Bis(trifluoromethyl)benzyl)-9H-pyrrolizino[1,2-b]quinoline-9,10(4H)-dione]: the IC50 (in the assay on BHK-21 cells; in [1]; in [2]; in assay [3]; in [4]; in assay [5]) was 0.05 to 5 mM in each case. For the same molecule, the results for the IC50 (in assay [6]; in the assay with NF-κB; in [7]) were 0.05 to 5 mM, 1 to 10 µM and 0.1 to 1 µM, respectively.

Consider `O=C1c2c(nc3ccccc3c2OCc2cc(C(F)(F)F)cc(C(F)(F)F)c2)-c2cccn21` [Compound 607b, 9-((3,5-bis(trifluoromethyl)benzyl)oxy)-10H-pyrrolizino[1,2-b]quinolin-10-one], for which the concentration for half-maximal inhibition (IC50) (with BHK-21 cells; in assay [1]; in assay [2]; in assay [3]; in [4]; in [5]) was 0.05 to 5 mM in each case. The concentration for half-maximal inhibition (IC50) in [6] lay in the range of 0.05 to 5 mM; with NF-κB, 1 to 10 µM; in assay [7] it was 1 to 10 µM.

Regarding `O=C1c2c(n(Cc3cccc(I)c3)c3ccccc3c2=O)-c2cccn21` [Compound 608a, 4-(3-Iodobenzyl)-9H-pyrrolizino[1,2-b]quinoline-9,10(4H)-dione], the IC50 with BHK-21 cells was < 0.05 mM; in assay [1] it was 0.05 to 5 mM; in assay [2], 0.05 to 5 mM; in assay [3] it was 0.05 to 5 mM; in assay [4], 0.05 to 5 mM; in assay [5] it was < 0.05 mM. For the same molecule, the IC50 lay in the range of 0.05 to 5 mM in assay [6], 1 to 10 µM in the assay on NF-κB and 1 to 10 µM in assay [7].

Turning to `O=C1c2c(nc3ccccc3c2OCc2cccc(I)c2)-c2cccn21` [Compound 608b, 9-((3-iodobenzyl)oxy)-10H-pyrrolizino[1,2-b]quinolin-10-one], the IC50 (with BHK-21 cells; in assay [1]; in [2]; in assay [3]; in assay [4]; in assay [5]) was 0.05 to 5 mM throughout. The half-inhibitory concentration (IC50) was in the range of 0.05 to 5 mM in [6], 1 to 10 µM in the assay on NF-κB and 1 to 10 µM in assay [7].

As to `Cc1cccc(Cn2c3c(c(=O)c4ccccc42)C(=O)n2cccc2-3)c1` [Compound 609a, 4-(3-Methylbenzyl)-9H-pyrrolizino[1,2-b]quinoline-9,10(4H)-dione], the IC50 (in the assay with BHK-21 cells; in [1]; in assay [2]; in assay [3]; in assay [4]; in [5]) was 0.05 to 5 mM in each case. Moreover, the IC50 in assay [6] lay within 0.05 to 5 mM; in the assay on NF-κB, 1 to 10 µM; in [7] it was 0.1 to 1 µM.

For the molecule `Cc1cccc(COc2c3c(nc4ccccc24)-c2cccn2C3=O)c1` [Compound 609b, 9-((3-methylbenzyl)oxy)-10H-pyrrolizino[1,2-b]quinolin-10-one], the IC50 (with BHK-21 cells; in [1]; in [2]; in assay [3]; in assay [4]; in assay [5]) was 0.05 to 5 mM in each case. In addition, the 50% inhibitory concentration (IC50) was 0.05 to 5 mM in assay [6], 1 to 10 µM in the assay on NF-κB and 1 to 10 µM in assay [7].

On to `COc1cccc(Cn2c3c(c(=O)c4ccccc42)C(=O)n2cccc2-3)c1` [Compound 610a, 4-(3-Methoxybenzyl)-9H-pyrrolizino[1,2-b]quinoline-9,10(4H)-dione], for which the IC50 (with BHK-21 cells; in [1]; in [2]; in assay [3]; in assay [4]; in assay [5]) was 0.05 to 5 mM in each case. In addition, the IC50 fell in the range of 0.05 to 5 mM in assay [6], 1 to 10 µM in the assay with NF-κB and 1 to 10 µM in assay [7].

Take `COc1cccc(COc2c3c(nc4ccccc24)-c2cccn2C3=O)c1` [Compound 610b, 9-((3-methoxybenzyl)oxy)-10H-pyrrolizino[1,2-b]quinolin-10-one]: the 50% inhibitory concentration (IC50) (with BHK-21 cells; in assay [1]; in [2]; in [3]; in assay [4]; in assay [5]) was 0.05 to 5 mM in each case. Further, the values for the half-inhibitory concentration (IC50) (in assay [6]; with NF-κB; in [7]) were 0.05 to 5 mM, 1 to 10 µM and 1 to 10 µM, respectively.

`O=C1c2c(n(Cc3cc(C(F)(F)F)ccc3Cl)c3ccccc3c2=O)-c2cccn21` [Compound 611a, 4-(2-Chloro-5-(trifluoromethyl)benzyl)-9H-pyrrolizino[1,2-b]quinoline-9,10(4H)-dione]: the 50% inhibitory concentration (IC50) (in the assay with BHK-21 cells; in [1]; in assay [2]; in assay [3]; in [4]; in assay [5]) was 0.05 to 5 mM in each case. The IC50 in assay [6] lay within 0.05 to 5 mM; in the assay with NF-κB, 0.1 to 1 µM; in assay [7] it was 10 to 50 µM.

Regarding `O=C1c2c(nc3ccccc3c2OCc2cc(C(F)(F)F)ccc2Cl)-c2cccn21` [Compound 611b, 9-((2-chloro-5-(trifluoromethyl)benzyl)oxy)-10H-pyrrolizino[1,2-b]quinolin-10-one], the concentration for half-maximal inhibition (IC50) (with BHK-21 cells; in [1]; in assay [2]; in assay [3]; in [4]; in assay [5]) was 0.05 to 5 mM each time. The figures for the concentration for half-maximal inhibition (IC50) (in assay [6]; in the assay with NF-κB; in [7]) were 0.05 to 5 mM, 1 to 10 µM and 10 to 50 µM, respectively.
